Among the test systems are HL-60(TB) leukemia; U251 CNS; LOX IMVI melanoma; KM12 colon; SK-MEL-2 melanoma; RXF 393 renal; K-562 leukemia; HCC-2998 colon; IGROV1 ovarian; HOP-92 NSCLC; UACC-62 melanoma; MOLT-4 leukemia; SF-295 CNS; UACC-257 melanoma; HCT-15 colon.
Holding throughout (assay): NCI tumour cell line growth inhibition, 48 h

Structures are written as SMILES.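 All cell lines were grown in 96-well plates and treated with compound for 48 hours. Abbreviation: GI50, concentration required for 50% inhibition of growth. TGI marks complete inhibition of growth.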

The values that follow come from PubChem BioAssay (NCI).

Turning to `Cc1c(CNc2ccc(C(=O)NC(CC(=O)O)C(=O)O)cc2)ccc2nc(N)nc(N)c12` (centres undefined), the TGI with HL-60(TB) leukemia, in the assay on U251 CNS, in the assay with LOX IMVI melanoma, with KM12 colon, with SK-MEL-2 melanoma and with RXF 393 renal was more than 1000 µM each time. Further, the TGI is more than 1000 µM with K-562 leukemia; 21.2 µM in the assay with HCC-2998 colon; more than 1000 µM in the assay with IGROV1 ovarian; more than 1000 µM in the assay on HOP-92 NSCLC; more than 1000 µM in the assay on UACC-62 melanoma; more than 1000 µM in the assay with MOLT-4 leukemia. In addition, the TGI in the assay on SF-295 CNS, in the assay with UACC-257 melanoma and in the assay on HCT-15 colon was more than 1000 µM each time. The GI50 is 0.226 µM in the assay with U251 CNS, more than 1000 µM with SK-MEL-2 melanoma, more than 1000 µM in the assay on RXF 393 renal and more than 1000 µM with HOP-92 NSCLC.

As to `Cc1cccc(C(C)C)c1NC(=O)CC1Sc2ccccc2NC1=O` (centres undefined), the TGI in the assay on HL-60(TB) leukemia, in the assay with U251 CNS, in the assay on LOX IMVI melanoma, in the assay on KM12 colon, in the assay with SK-MEL-2 melanoma and in the assay on RXF 393 renal was more than 100 µM in each case. In addition, the TGI in the assay on K-562 leukemia, in the assay with HCC-2998 colon, with IGROV1 ovarian, with HOP-92 NSCLC, with UACC-62 melanoma and in the assay with MOLT-4 leukemia was more than 100 µM in each case. Besides, the TGI in the assay with SF-295 CNS, in the assay on UACC-257 melanoma and in the assay on HCT-15 colon was more than 100 µM throughout.

For the compound `CC(=O)Nc1ccc(-c2nc3ccccc3s2)cc1`, the TGI with HL-60(TB) leukemia is more than 100 µM; with U251 CNS, 92.6 µM; with LOX IMVI melanoma it was more than 100 µM; with KM12 colon, more than 100 µM; with SK-MEL-2 melanoma it was more than 100 µM; with RXF 393 renal it was 74.4 µM. In addition, the TGI in the assay on K-562 leukemia is 77 µM; with HCC-2998 colon, more than 100 µM; in the assay with IGROV1 ovarian, more than 100 µM; with HOP-92 NSCLC, more than 100 µM; in the assay with UACC-62 melanoma it was more than 100 µM; with MOLT-4 leukemia it was more than 100 µM. Also, the TGI in the assay with SF-295 CNS, with UACC-257 melanoma and in the assay on HCT-15 colon was more than 100 µM throughout.

As to `CN1CCN(CN2C(=O)C3C4C=CC(C3C2=O)C2C(=O)N(CN3CCN(C)CC3)C(=O)C42)CC1` (centres undefined), the TGI in the assay with HL-60(TB) leukemia was 61.6 µM; in the assay on U251 CNS, more than 100 µM; with LOX IMVI melanoma, more than 63 µM; in the assay with KM12 colon, more than 100 µM; in the assay with SK-MEL-2 melanoma it was more than 100 µM; with RXF 393 renal it was more than 70.2 µM. For the same compound, the TGI with K-562 leukemia was more than 100 µM; in the assay on HCC-2998 colon, more than 100 µM; in the assay with IGROV1 ovarian it was more than 100 µM; with HOP-92 NSCLC it was more than 100 µM; in the assay on UACC-62 melanoma, more than 56.9 µM; with MOLT-4 leukemia it was 97.1 µM. Besides, the TGI in the assay on SF-295 CNS, in the assay with UACC-257 melanoma and in the assay on HCT-15 colon was more than 100 µM throughout.

On to `CC(C)=CCc1c(O)ccc2ccc(=O)oc12`, for which the TGI is more than 80.6 µM with HL-60(TB) leukemia; more than 100 µM with U251 CNS; more than 100 µM in the assay on LOX IMVI melanoma; more than 100 µM with KM12 colon; more than 100 µM in the assay with SK-MEL-2 melanoma; more than 100 µM in the assay on RXF 393 renal. Moreover, the TGI in the assay on K-562 leukemia was more than 100 µM; in the assay on HCC-2998 colon it was more than 100 µM; with IGROV1 ovarian, more than 100 µM; in the assay with HOP-92 NSCLC, 94.6 µM; with UACC-62 melanoma, more than 100 µM; with MOLT-4 leukemia, 84.2 µM. Also, the values for the TGI with SF-295 CNS, with UACC-257 melanoma and in the assay with HCT-15 colon were more than 100 µM, 84 µM and more than 100 µM, respectively.

Consider `COc1cccc2c1C(=O)c1c(O)c3c(c(O)c1C2=O)C[C@@](O)(C(=O)CO)C[C@@H]3OC1CC(N)C(OC)C(C)O1` (some centres undefined), for which the TGI in the assay on HL-60(TB) leukemia worked out at 0.388 µM; with U251 CNS, 0.441 µM; with LOX IMVI melanoma it was 0.181 µM; in the assay on KM12 colon it was 0.931 µM; in the assay with SK-MEL-2 melanoma it was 0.407 µM; in the assay on RXF 393 renal, 0.825 µM. Also, the TGI in the assay with K-562 leukemia was 0.0483 µM; with HCC-2998 colon it was 0.763 µM; in the assay on IGROV1 ovarian it was 16.4 µM; in the assay with HOP-92 NSCLC, 0.631 µM; with UACC-62 melanoma, 0.227 µM; in the assay with MOLT-4 leukemia it was 0.0517 µM. The values for the TGI in the assay on SF-295 CNS, in the assay with UACC-257 melanoma and in the assay on HCT-15 colon were 1.98 µM, 1.34 µM and 13.2 µM, respectively.

On to `CCOC(=O)c1csc(NC(=O)CN2CCN(C)CC2)n1`, for which the TGI in the assay with HL-60(TB) leukemia, with U251 CNS, in the assay on LOX IMVI melanoma, in the assay with KM12 colon, in the assay on SK-MEL-2 melanoma and with RXF 393 renal was more than 100 µM throughout. The TGI in the assay with K-562 leukemia, in the assay with HCC-2998 colon, in the assay on IGROV1 ovarian, in the assay with HOP-92 NSCLC, with UACC-62 melanoma and with MOLT-4 leukemia was more than 100 µM throughout. Further, the TGI in the assay with SF-295 CNS, in the assay with UACC-257 melanoma and in the assay on HCT-15 colon was more than 100 µM throughout.

Take `CC#C[P+](c1ccccc1)(c1ccccc1)c1ccccc1`: the TGI with HL-60(TB) leukemia worked out at 13.9 µM; in the assay with U251 CNS it was 11.8 µM; with LOX IMVI melanoma it was 6.75 µM; with KM12 colon, 11.3 µM; with SK-MEL-2 melanoma, 5.75 µM; in the assay with RXF 393 renal, 18.9 µM. Moreover, the TGI in the assay on K-562 leukemia was 11.8 µM; in the assay on HCC-2998 colon, 14.5 µM; in the assay with IGROV1 ovarian, 26.1 µM; in the assay on HOP-92 NSCLC it was 5.42 µM; with UACC-62 melanoma it was 14.8 µM; in the assay with MOLT-4 leukemia, 5.31 µM. For the same compound, the TGI in the assay with SF-295 CNS was 9.15 µM; with UACC-257 melanoma, 9.59 µM; in the assay on HCT-15 colon it was 35.8 µM.

Take `COc1cc2c3c(c4cc(OC)c(OC)cc4c2cc1OC)C(=O)C1CCC(=O)N1C3` (centres undefined): the TGI is more than 100 µM in the assay on HL-60(TB) leukemia; more than 100 µM with U251 CNS; more than 100 µM in the assay with LOX IMVI melanoma; more than 100 µM with KM12 colon; more than 100 µM in the assay on SK-MEL-2 melanoma; 89.6 µM with RXF 393 renal. For the same compound, the TGI with K-562 leukemia was more than 100 µM; in the assay on HCC-2998 colon, more than 100 µM; with IGROV1 ovarian, 88.5 µM; in the assay with HOP-92 NSCLC, 82.2 µM; in the assay with UACC-62 melanoma, more than 100 µM; in the assay on MOLT-4 leukemia, 37.5 µM. Besides, the TGI in the assay with SF-295 CNS, in the assay with UACC-257 melanoma and in the assay on HCT-15 colon was more than 100 µM throughout.

`CCCC(O)C(NC(=O)CCl)C(=O)O` (centres undefined): the TGI in the assay on HL-60(TB) leukemia, with U251 CNS, in the assay with LOX IMVI melanoma, with KM12 colon, in the assay on SK-MEL-2 melanoma and in the assay with RXF 393 renal was more than 100 µM throughout. Besides, the TGI with K-562 leukemia, in the assay on HCC-2998 colon, with IGROV1 ovarian, with HOP-92 NSCLC, in the assay with UACC-62 melanoma and with MOLT-4 leukemia was more than 100 µM each time. Moreover, the TGI with SF-295 CNS, in the assay with UACC-257 melanoma and with HCT-15 colon was more than 100 µM throughout.

As to `COc1cc2c(cc1O)C1C(O)C(O)C=C3CCN(C2)C31` (centres undefined), the TGI is 7.53 µM in the assay with HL-60(TB) leukemia; 24.2 µM in the assay with U251 CNS; 8.19 µM in the assay with LOX IMVI melanoma; 11 µM with KM12 colon; 5.74 µM in the assay on SK-MEL-2 melanoma; 5.42 µM in the assay on RXF 393 renal. The TGI is more than 100 µM in the assay on K-562 leukemia; 8.44 µM with HCC-2998 colon; 13.6 µM in the assay with IGROV1 ovarian; 5.92 µM with HOP-92 NSCLC; 3.97 µM with UACC-62 melanoma; 12.2 µM in the assay with MOLT-4 leukemia. In addition, the TGI in the assay on SF-295 CNS was determined as 17.6 µM; in the assay with UACC-257 melanoma, 12.2 µM; in the assay with HCT-15 colon, 25.2 µM.

Consider `NCCCNCCCCNCCCN`, for which the TGI was 15.2 µM in the assay with HL-60(TB) leukemia; more than 63.7 µM in the assay on U251 CNS; 30.5 µM with LOX IMVI melanoma; more than 100 µM in the assay with KM12 colon; more than 100 µM with SK-MEL-2 melanoma; 28.3 µM with RXF 393 renal. Besides, the TGI in the assay on K-562 leukemia is more than 21.2 µM; in the assay on HCC-2998 colon, more than 76.7 µM; with IGROV1 ovarian, 33.8 µM; in the assay with HOP-92 NSCLC it was 3.41 µM; with UACC-62 melanoma, more than 100 µM; with MOLT-4 leukemia, 17.5 µM. The TGI in the assay on SF-295 CNS is more than 100 µM; with UACC-257 melanoma, more than 100 µM; with HCT-15 colon, 7.63 µM.
